Measurements reported in US20140213575A1, “6H-Thieno[3,2-f][1,2,4]triazolo[4,3-a][1,4]diazepines” (BAYER INTELLECTUAL PROPERTY GMBH, priority 2011, published 2014).

Legend:
LNCaP cells = test: Cellular proliferation assay (alamarBlue) LNCaP; assay type: cell-based; details: Homo sapiens, 168 hours, read-out: Prostate LNCaP IC50
Method: (§1) In accordance with the invention, the ability of the substances to inhibit the proliferation of various cell lines was determined. Cell viability was determined by means of the alamarBlue® reagent (Invitrogen). […] After incubation overnight at 37° C., the fluorescence values were determined (CI values). […] Then the fluorescence values were determined (CO values).
(§2) The substances were investigated in the cell lines in Table 1, which for example represent the stated indications: […]

LAPC-4 cells = test: Cellular proliferation assay (alamarBlue) LAPC-4; assay type: cell-based; details: Homo sapiens, LAPC4, 168 hours, read-out: Prostate LAPC-4 IC50
Method: as §1, §2

MDA-MB-231 cells = test: Cellular proliferation assay (alamarBlue) MDA-MB-231; assay type: cell-based; details: Homo sapiens, 96 hours, read-out: Breast MDA-MB-231 IC50
Method: as §1, §2

MOLP-8 cells = test: Cellular proliferation assay (alamarBlue) MOLP-8; assay type: cell-based; details: Homo sapiens, 120 hours, read-out: Multiple myeloma MOLP-8 IC50
Method: as §1, §2

MOLM-13 cells = test: Cellular proliferation assay (alamarBlue) MOLM-13; assay type: cell-based; details: Homo sapiens, 96 hours, read-out: Leukaemia MOLM-13 IC50
Method: as §1, §2

MCF-7 cells = test: Cellular proliferation assay (alamarBlue) MCF-7; assay type: cell-based; details: Homo sapiens, MCF7, 96 hours, read-out: Breast MCF-7 IC50
Method: as §1, §2

HeLa-MaTu cells = test: Cellular proliferation assay (alamarBlue) HeLa-MaTu; assay type: cell-based; details: 96 hours, read-out: Cervix HeLa-MaTu IC50
Method: as §1, §2

B16F10 cells = test: Cellular proliferation assay (alamarBlue) B16F10; assay type: cell-based; details: Mus musculus, B16-F10, 96 hours, read-out: Melanoma B16F10 IC50
Method: as §1, §2

BRD4(1) = target: T1, BRD4(1) (Homo sapiens, UniProt O60885); test: Binding assay BRD4/acetylated peptide H4 (TR-FRET/HTRF protein-protein interaction assay); details: inhibition of interaction BRD4(1) / acetylated histone H4 peptide, TR-FRET
T1 construct: BRD4(1) (amino acids 44-168); made in house; host or cells: E. coli
Description: Binding Assay BRD4/Acetylated Peptide H4 (“PRQ”)
To assess the BRD4 binding strength of the substances described in this application, their capacity for dose-dependent inhibition of the interaction between BRD4 and acetylated histone H4 was quantified.
For this purpose, a time-resolved fluorescence resonance energy transfer (TR-FRET) assay was used, which measures the binding between N-terminally His6-tagged BRD4(1) (amino acids 44-168) and a synthetic acetylated histone H4 (Ac-H4) peptide with the sequence GRGK(Ac)GGK(Ac)GLGK(Ac)GGAK(Ac)RHGSGSK-biotin. The recombinant BRD4 protein (produced in-house) was expressed in E. coli and was purified by (Ni-NTA) affinity chromatography and (Sephadex G-75) size-exclusion chromatography. The Ac-H4 peptide can be purchased for example from Biosyntan (Berlin, Germany).
In the assay, typically 11 different concentrations of each substance (0.1 nM, 0.33 nM, 1.1 nM, 3.8 nM, 13 nM, 44 nM, 0.15 μM, 0.51 μM, 1.7 μM, 5.9 μM and 20 μM) were measured as duplicates on the same microtitre plate. For this, 100-fold concentrated solutions in DMSO were prepared by serial dilutions (1:3.4) of a 2 mM stock solution in a clear, 384-well microtitre plate (Greiner Bio-One, Frickenhausen, Germany). From this, 50 nl was transferred to a black assay plate (Greiner Bio-One, Frickenhausen, Germany). The assay was started by supplying 2 μl of a 2.5-fold concentrated BRD4 solution (usually 10 to 50 nM final concentration in the 5 μl of the reaction volume) in aqueous assay buffer [50 mM HEPES pH 7.5, 50 mM sodium chloride (NaCl), 0.25 mM CHAPS and 0.05% serum albumin (BSA)] to the substances in the assay plate. This was followed by a 10-minute incubation step at 22° C. for the pre-equilibration of putative complexes between BRD4 and the substances.
The mixture was then incubated in the dark for one hour at 22° C. and then overnight at 4° C. The formation of BRD4/Ac-H4 complexes was determined by measuring the resonance energy transfer from the streptavidin-Eu-cryptate to the anti-6His-XL665 antibody that is present in the reaction. For this, the fluorescence emissions at 620 nm and 665 nm were measured after excitation at 330-350 nm in a TR-FRET measuring instrument, e.g. a Rubystar or Pherastar (both from BMG Lab Technologies, Offenburg, Germany) or a Viewlux (Perkin-Elmer). The ratio of the emissions at 665 nm and at […] was taken as an indicator of the amount of BRD4/Ac-H4 complexes formed.
The data obtained (ratio) were normalized, wherein 0% inhibition corresponded to the mean value from the measured values of a set of controls (usually 32 data points), in which all reagents were contained. 50 nl DMSO (100%) was used instead of test substances. Inhibition of 100% corresponded to the mean value from the measured values of a set of controls (usually 32 data points), in which all reagents except BRD4 were contained. The IC50 value was determined by regression analysis based on a 4-parameter equation (minimum, maximum, IC50, Hill; Y=Max+(Min−Max)/(1+(X/IC50)^Hill)) using Bayer's own analysis software.

VCaP cells = test: Cellular proliferation assay (alamarBlue) VCaP; assay type: cell-based; details: Homo sapiens, 168 hours, read-out: Prostate VCaP IC50
Method: as §1, §2

Row | SMILES | IC50 (LNCaP cells) | IC50 (LAPC-4 cells) | IC50 (MDA-MB-231 cells) | IC50 (MOLP-8 cells) | IC50 (MOLM-13 cells) | IC50 (MCF-7 cells) | IC50 (HeLa-MaTu cells) | IC50 (B16F10 cells) | IC50 (BRD4(1)) | IC50 (VCaP cells)
1 | Cc1sc2c(c1C)C(c1ccc(Cl)cc1)=N[C@@H](CC(=O)NC1C[C@H]3CCC[C@@H](C1)N3C(=O)OC(C)(C)C)c1nnc(C)n1-2 (stereo partly drawn) [Example 3, (1R,5S)-tert-Butyl-3-({2-[(S)-4-(4-chlorophenyl)-2,3,9-trimethyl-6H-thieno[3,2-f][1,2,4]triazolo[4,3-a][1,4]diazepin-6-yl]acetyl}amino)-9-azabicyclo[3.3.1]nonane-9-carboxylate] | 17 nM | 41 nM | 129 nM | 170 nM | 83 nM | 20 nM | 40 nM | 29 nM | 240 nM | 65 nM
2 | Cc1sc2c(c1C)C(c1ccc(Cl)cc1)=N[C@@H](CC(=O)NC1C[C@H]3CCC[C@@H](C1)N3)c1nnc(C)n1-2 (stereo partly drawn) [Example 4, N-[(1R,5S)-9-Azabicyclo[3.3.1]non-3-yl]-2-[(S)-4-(4-chlorophenyl)-2,3,9-trimethyl-6H-thieno[3,2-f][1,2,4]triazolo[4,3-a][1,4]diazepin-6-yl]acetamide] | 353 nM | 228 nM | 604 nM | 240 nM | 57 nM | 300 nM | 753 nM | 1050 nM | 15 nM | 71 nM
3 | Cc1sc2c(c1C)C(c1ccc(Cl)cc1)=N[C@@H](CC(=O)N1CC3CCC(C1)O3)c1nnc(C)n1-2 [Example 5, 2-[(S)-4-(4-Chlorophenyl)-2,3,9-trimethyl-6H-thieno[3,2-f][1,2,4]triazolo[4,3-a][1,4]diazepin-6-yl]-1-(8-oxa-3-azabicyclo[3.2.1]oct-3-yl)ethan-1-one] | 40 nM | 65 nM | 138 nM | 120 nM | 127 nM | 93 nM | 331 nM | 91 nM | 78 nM | 67 nM
4 | Cc1sc2c(c1C)C(c1ccc(Cl)cc1)=N[C@@H](CC(=O)N1CCC3(COC3)C1)c1nnc(C)n1-2 [Example 6, 2-[(S)-4-(4-Chlorophenyl)-2,3,9-trimethyl-6H-thieno[3,2-f][1,2,4]triazolo[4,3-a][1,4]diazepin-6-yl]-1-(2-oxa-6-azaspiro[3.4]oct-6-yl)ethan-1-one] | 36 nM | 72 nM | 122 nM | 110 nM | 131 nM | 98 nM | 251 nM | 87 nM | 29 nM | 65 nM
5 | Cc1sc2c(c1C)C(c1ccc(Cl)cc1)=N[C@@H](CC(=O)N1CCC3(CC1)COC3)c1nnc(C)n1-2 [Example 7] | 102 nM | 32 nM | 69 nM | 51 nM | 68 nM | 59 nM | 167 nM | 48 nM | 32 nM | 35 nM
6 | Cc1sc2c(c1C)C(c1ccc(Cl)cc1)=N[C@@H](CC(=O)N1CC3CCC1CC3)c1nnc(C)n1-2 [Example 8, (S)-1-(2-Azabicyclo[2,2,2]oct-2-yl)-2-[(6S)-4-(4-chlorophenyl)-2,3,9-trimethyl-6H-thieno[3,2-j][1,2,4]triazolo[4,3-a][1,4]diazepin-6-yl]ethanone] |  | 133 nM | 363 nM |  | 1060 nM |  |  | 297 nM | 84 nM | 
7 | Cc1sc2c(c1C)C(c1ccc(Cl)cc1)=N[C@@H](CC(=O)N1C3CCC1CC3)c1nnc(C)n1-2 [Example 9, (S)-1-(7-Azabicyclo[2.2.1]hept-7-yl)-2-[(6S)-4-(4-chlorophenyl)-2,3,9-trimethyl-6H-thieno[3,2-f][1,2,4]triazolo[4,3-a][1,4]diazepin-6-yl]ethanone] |  | 88 nM | 291 nM |  | 838 nM |  |  | 414 nM | 75 nM | 
